From publication PMC6345968, “Structural basis for species-selective targeting of Hsp90 in a pathogenic fungus” (Nature Communications, 2019)
Like-named read-outs stand apart in the source and are kept apart here.

How the values were obtained:
[1] = target: T1, Hsp90 in C. albicans (SC5314) lysate (Candida albicans, UniProt P46598); experiment: biochemical; assay type: binding; conditions: for EC50: read-out: EC50; for FP signal: raw
T1 construct: endogenous in cells; host or cells: C. albicans SC5314 whole-cell lysate

Hsp90 in HEPG2 lysate = conditions: for FP signal: raw
[2] = EC50 relative to GdA, SC5314 lysate
[3] = EC50 relative to GdA, HEPG2 lysate
[4] = HEPG2 lysate, log concentration 0.137354 (1.372 nM)
[5] = HEPG2 lysate, log concentration 0.61437 (4.115 nM)
[6] = HEPG2 lysate, log concentration 1.09153 (12.346 nM)
[7] = HEPG2 lysate, log concentration 1.56864 (37.037 nM)
[8] = HEPG2 lysate, log concentration 2.04576 (111.111 nM)
[9] = HEPG2 lysate, log concentration 2.52288 (333.333 nM)
[10] = HEPG2 lysate, log concentration 3 (1000 nM)
[11] = HEPG2 lysate, log concentration 3.47712 (3000 nM)
[12] = HEPG2 lysate, log concentration -0.340084 (0.457 nM)
[13] = SC5314 lysate, 0.457 nM compound
[14] = SC5314 lysate, 1.372 nM compound
[15] = SC5314 lysate, 4.115 nM compound
[16] = SC5314 lysate, 12.346 nM compound
[17] = SC5314 lysate, 37.037 nM compound
[18] = SC5314 lysate, 111.111 nM compound
[19] = SC5314 lysate, 333.333 nM compound
[20] = SC5314 lysate, 1000 nM compound
[21] = SC5314 lysate, 3000 nM compound

T1 sequence (P46598 whole entry): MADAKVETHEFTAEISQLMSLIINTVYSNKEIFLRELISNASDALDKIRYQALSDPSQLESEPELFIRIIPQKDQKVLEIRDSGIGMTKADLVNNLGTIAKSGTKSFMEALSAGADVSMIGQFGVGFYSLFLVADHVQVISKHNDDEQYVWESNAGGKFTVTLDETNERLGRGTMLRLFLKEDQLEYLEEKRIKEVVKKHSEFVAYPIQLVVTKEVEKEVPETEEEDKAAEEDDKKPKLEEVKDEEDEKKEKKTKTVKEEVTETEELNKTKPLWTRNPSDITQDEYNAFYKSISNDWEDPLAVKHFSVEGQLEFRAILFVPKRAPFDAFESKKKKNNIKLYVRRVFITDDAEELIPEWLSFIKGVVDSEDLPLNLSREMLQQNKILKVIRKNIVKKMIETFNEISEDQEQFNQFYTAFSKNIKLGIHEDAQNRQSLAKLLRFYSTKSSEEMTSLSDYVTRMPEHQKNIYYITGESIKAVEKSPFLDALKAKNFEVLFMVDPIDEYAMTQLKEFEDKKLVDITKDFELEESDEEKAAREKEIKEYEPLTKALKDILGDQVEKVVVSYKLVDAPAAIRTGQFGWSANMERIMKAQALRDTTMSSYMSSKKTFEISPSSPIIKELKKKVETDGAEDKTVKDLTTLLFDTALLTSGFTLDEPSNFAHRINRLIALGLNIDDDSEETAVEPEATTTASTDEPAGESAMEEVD

CC1(C)CC(=O)c2c(C(F)(F)F)nn(-c3ccc(C(N)=O)c(N[C@H]4CC[C@H](OC(=O)CN)CC4)c3)c2C1 [SNX-5422]
Hep/SC ([1]; EC50 HEPG2 / EC50 SC5314): 5.438
Rel. to GdA [1, 2]: 0.6171
Hep/Sc rel. Gda ([1]; Hep/SC ratio relative to that of GdA): 4.063
FP signal (raw) ([1]; SC5314 lysate, 0.457 nM): 205
FP signal (raw) ([1]; SC5314 lysate, 1.372 nM): 197
FP signal (raw) ([1]; SC5314 lysate, 4.115 nM): 177
FP signal (raw) ([1]; SC5314 lysate, 12.346 nM): 118
FP signal (raw) ([1]; SC5314 lysate, 37.037 nM): 60
FP signal (raw) ([1]; SC5314 lysate, 111.111 nM): 41
FP signal (raw) ([1]; SC5314 lysate, 333.333 nM): 35
FP signal (raw) ([1]; SC5314 lysate, 1000 nM): 33
FP signal (raw) ([1]; SC5314 lysate, 3000 nM): 34
EC50 ([1]; SC5314 lysate): 12.1 nM
Rel. to GdA (Hsp90 in HEPG2 lysate; [3]): 2.507
EC50 (Hsp90 in HEPG2 lysate; HEPG2 lysate): 65.6 nM
FP signal, Fxn Control (Hsp90 in HEPG2 lysate; [4]): 0.9858
FP signal, Fxn Control (Hsp90 in HEPG2 lysate; [5]): 0.9717
FP signal, Fxn Control (Hsp90 in HEPG2 lysate; [6]): 0.8821
FP signal, Fxn Control (Hsp90 in HEPG2 lysate; [7]): 0.7028
FP signal, Fxn Control (Hsp90 in HEPG2 lysate; [8]): 0.4953
FP signal, Fxn Control (Hsp90 in HEPG2 lysate; [9]): 0.3632
FP signal, Fxn Control (Hsp90 in HEPG2 lysate; [10]): 0.25
FP signal, Fxn Control (Hsp90 in HEPG2 lysate; [11]): 0.217
FP signal, Fxn Control (Hsp90 in HEPG2 lysate; [12]): 0.9858
FP signal (raw) (Hsp90 in HEPG2 lysate; HepG2 lysate, 0.457 nM): 209
FP signal (raw) (Hsp90 in HEPG2 lysate; HepG2 lysate, 1.372 nM): 209
FP signal (raw) (Hsp90 in HEPG2 lysate; HepG2 lysate, 4.115 nM): 206
FP signal (raw) (Hsp90 in HEPG2 lysate; HepG2 lysate, 12.346 nM): 187
FP signal (raw) (Hsp90 in HEPG2 lysate; HepG2 lysate, 37.037 nM): 149
FP signal (raw) (Hsp90 in HEPG2 lysate; HepG2 lysate, 111.111 nM): 105
FP signal (raw) (Hsp90 in HEPG2 lysate; HepG2 lysate, 333.333 nM): 77
FP signal (raw) (Hsp90 in HEPG2 lysate; HepG2 lysate, 1000 nM): 53
FP signal (raw) (Hsp90 in HEPG2 lysate; HepG2 lysate, 3000 nM): 46

CCON=C1/C=C/C=C\[C@H]2O[C@H]2C[C@@H](C)OC(=O)c2c(O)cc(O)c(Cl)c2C1 [compound 333]
Ratio re. GdA [1, 2]: 0.3152
FP signal (raw) ([1]; SC5314 lysate, 0.457 nM): 168
FP signal relative to 0 nM [1, 13]: 0.8317
FP signal [1, 13]: 168
FP signal (raw) ([1]; SC5314 lysate, 1.372 nM): 155
FP signal relative to 0 nM [1, 14]: 0.7673
FP signal [1, 14]: 155
FP signal (raw) ([1]; SC5314 lysate, 4.115 nM): 114
FP signal relative to 0 nM [1, 15]: 0.5644
FP signal [1, 15]: 114
FP signal (raw) ([1]; SC5314 lysate, 12.346 nM): 81
FP signal relative to 0 nM [1, 16]: 0.401
FP signal [1, 16]: 81
FP signal (raw) ([1]; SC5314 lysate, 37.037 nM): 58
FP signal relative to 0 nM [1, 17]: 0.2871
FP signal [1, 17]: 58
FP signal (raw) ([1]; SC5314 lysate, 111.111 nM): 39
FP signal relative to 0 nM [1, 18]: 0.1931
FP signal [1, 18]: 39
FP signal (raw) ([1]; SC5314 lysate, 333.333 nM): 35
FP signal relative to 0 nM [1, 19]: 0.1733
FP signal [1, 19]: 35
FP signal (raw) ([1]; SC5314 lysate, 1000 nM): 36
FP signal relative to 0 nM [1, 20]: 0.1782
FP signal [1, 20]: 36
FP signal (raw) ([1]; SC5314 lysate, 3000 nM): 35
FP signal relative to 0 nM [1, 21]: 0.1733
FP signal [1, 21]: 35
EC50 ([1]; SC5314 lysate, not normalized, oxime panel experiment 220817): 5.36 nM
HepG2/SC5314 ([1]; ratio of GdA-normalized EC50s, human over fungal lysate): 1.134
HepG2/SC5314 ([1]; ratio of GdA-relative EC50 ratios, HepG2 over SC5314): 1.134
Ratio rel. GdA (HepG2) (Hsp90 in HEPG2 lysate; EC50 / EC50 of GdA in HepG2 lysate): 0.3573
Ratio rel. GdA (HepG2) (Hsp90 in HEPG2 lysate; [3]): 0.3573
FP signal, Fxn Control (Hsp90 in HEPG2 lysate; [4]): 0.9198
FP signal, Fxn Control (Hsp90 in HEPG2 lysate; [5]): 0.7075
FP signal, Fxn Control (Hsp90 in HEPG2 lysate; [6]): 0.5047
FP signal, Fxn Control (Hsp90 in HEPG2 lysate; [7]): 0.3066
FP signal, Fxn Control (Hsp90 in HEPG2 lysate; [8]): 0.2075
FP signal, Fxn Control (Hsp90 in HEPG2 lysate; [9]): 0.1651
FP signal, Fxn Control (Hsp90 in HEPG2 lysate; [10]): 0.184
FP signal, Fxn Control (Hsp90 in HEPG2 lysate; [11]): 0.2028
FP signal, Fxn Control (Hsp90 in HEPG2 lysate; [12]): 0.9575
FP signal (raw) (Hsp90 in HEPG2 lysate; HepG2 lysate, 0.457 nM): 203
FP signal (Hsp90 in HEPG2 lysate; HepG2 lysate, 0.457 nM compound): 203
FP signal (raw) (Hsp90 in HEPG2 lysate; HepG2 lysate, 1.372 nM): 195
FP signal (Hsp90 in HEPG2 lysate; HepG2 lysate, 1.372 nM compound): 195
FP signal (raw) (Hsp90 in HEPG2 lysate; HepG2 lysate, 4.115 nM): 150
FP signal (Hsp90 in HEPG2 lysate; HepG2 lysate, 4.115 nM compound): 150
FP signal (raw) (Hsp90 in HEPG2 lysate; HepG2 lysate, 12.346 nM): 107
FP signal (Hsp90 in HEPG2 lysate; HepG2 lysate, 12.346 nM compound): 107
FP signal (raw) (Hsp90 in HEPG2 lysate; HepG2 lysate, 37.037 nM): 65
FP signal (Hsp90 in HEPG2 lysate; HepG2 lysate, 37.037 nM compound): 65
FP signal (raw) (Hsp90 in HEPG2 lysate; HepG2 lysate, 111.111 nM): 44
FP signal (Hsp90 in HEPG2 lysate; HepG2 lysate, 111.111 nM compound): 44
FP signal (raw) (Hsp90 in HEPG2 lysate; HepG2 lysate, 333.333 nM): 35
FP signal (Hsp90 in HEPG2 lysate; HepG2 lysate, 333.333 nM compound): 35
FP signal (raw) (Hsp90 in HEPG2 lysate; HepG2 lysate, 1000 nM): 39
FP signal (Hsp90 in HEPG2 lysate; HepG2 lysate, 1000 nM compound): 39
FP signal (raw) (Hsp90 in HEPG2 lysate; HepG2 lysate, 3000 nM): 43
FP signal (Hsp90 in HEPG2 lysate; HepG2 lysate, 3000 nM compound): 43
EC50 (Hsp90 in HEPG2 lysate; HepG2 lysate, oxime panel experiment 220817): 7.93 nM
